Results reported in patent US20080318958A1, “New utilities of tricyclic compounds” (priority 2001, published 2008).

Tests used:
[1] = tested on: promoter region of the gene encoding human apoAI; assay: Activity to enhance the expression of human apoAI: apoAI promoter-firefly luciferase reporter in stably transfected HepG2 cells; type: cell-based; details: concentration that intensified the luciferase activity twice compared to DMSO control, 24 hours incubation with compound, read-out: MED (minimal effective dose)
Experimental: The promoter region of the gene encoding human apoAI was isolated, and ligated upstream the structure gene of firefly luciferase to construct a reporter plasmid. The reporter plasmid and a marker plasmid conferring the neomycin resistance were co-infected to cell lines derived from human hepatoma, HepG2 cells, and the cell lines were incubated in a selection medium comprising DMEM medium containing 10% fetal calf serum supplemented with G418 (Final concentration: 0.7 mg/mL, Gibco) to give established strains that stably expressed the reporter molecule. The strains were seeded to a 96-well culture plates at a density of 50,000 cells per well, and incubated for 48 hours at 37° C. under an atmosphere of 5% carbon dioxide. Then, a solution of the compounds according to the invention in DMSO was added to the wells at final concentrations of 0 to 10 μg/mL. After further incubation for 24 hours, the cells were added with a luciferase assay reagent (Piccagene LT 7.5 registered trade mark, Toyo Ink, KK), and the luciferase activity was determined using a luminometer (MicroBeta™ TRILUX, 1 sec/well, Wallac). The concentration of the compounds, which intensified the luciferase activity twice compared to that of control (DMSO without any compound of the invention added) was set as the minimal effective dose (MED).

melting point [°C]	SMILES	EC (2-fold luciferase activity) [1] [µM]
–	c1ccc(-c2ccc(-c3ccoc3)cc2)nc1 [Compound I-37]	4.4
46 to 48	c1ccc(-c2cccc(-c3ncccn3)c2)cc1 [Compound I-9]	–
–	COc1nc(OC)nc(-c2ccc(-c3ccccc3)cc2)n1 [Compound I-29]	2.5
218 to 220	c1ccc(-c2ccc(-c3ccccc3)nn2)cc1 [Compound I-7]	0.04
66 to 69	c1ccc(-c2ccnc(-c3ccccc3)n2)cc1 [Compound I-4]	–
–	Cc1cccc(-c2ccc(-c3ccccc3)cc2)n1 [Compound I-21]	2.3
–	COc1ccc(-c2ccc(-c3ccccn3)cc2)cc1 [Compound I-40]	0.16
–	c1ccc(-c2ccc(-c3ccncn3)cc2)cc1 [Compound I-1]	0.63
–	Clc1ccc(-c2ccc(-c3ccccc3)cc2)nn1 [Compound I-26]	0.27
–	COc1cc(-c2ccc(O)cc2)c(OC)c(O)c1-c1ccc2c(c1)OC(O)CO2 (stereo not drawn) [Compound I-45]	2.4
112 to 113	c1ccc(-c2ccc(-c3ncccn3)cc2)cc1 [Compound I-8]	0.09
–	c1ccc(-c2ccc(-c3ccc(-c4ccccc4)nn3)cc2)cc1 [Compound I-28]	2.5
–	c1ccc(-c2cnc(-c3ccccc3)nc2)cc1 [Compound I-2]	0.2
–	COc1cc(OC)nc(-c2ccc(-c3ccccc3)cc2)n1 [Compound I-24]	2.2
91 to 92	c1ccc(-c2cc(-c3ccccc3)ncn2)cc1 [Compound I-5]	–
–	COc1cccc(-c2ccc(-c3ccccc3)cc2)n1 [Compound I-22]	0.84
88.5 to 90	c1ccc(-c2cncc(-c3ccccc3)n2)cc1 [Compound I-6]	3.11

melting point [°C]	SMILES	EC (2-fold luciferase activity) [1] [µM]
–	c1ccc(-c2ccc(-c3cnc4ccccc4n3)cc2)cc1 [Compound I-16]	0.1
–	COc1ccc(-c2ccc(-c3ccccc3)cc2)nn1 [Compound I-27, 3-(4-Biphenyl)-6-methoxypyridazin]	0.06
–	Cc1ccc(-c2ccc(-c3ccccn3)cc2)cc1 [Compound I-42]	0.09
–	CCc1cnc(-c2ccc(-c3ccccc3)cc2)nc1 [Compound I-23]	0.27
175 to 177	COc1ccc(-c2nnc(-c3ccccc3)c3ccccc23)cc1 [Compound I-13]	–
–	COc1cc(-c2ccc(O)cc2)c(OC)c(O)c1-c1ccc(OC/C=N/C2CCN(C)CC2)c(O)c1 [Compound I-48]	1.6
–	COc1cccc(-c2cnc(-c3cccc(OC)c3)cn2)c1 [Compound I-35]	0.29
–	c1ccc(-c2ccc(-c3ccsc3)cc2)nc1 [Compound I-36, 2-[4-(3-Thienyl)phenyl]pyridine]	1.3
–	CC(=O)Nc1ccc(-c2ccc(-c3ccccn3)cc2)cc1 [Compound I-43]	0.3
203 to 205	c1ccc(-c2nnc(-c3ccccc3)c3ccccc23)cc1 [Compound I-12]	–
–	c1ccc(-c2ccc(-c3ccc4ccccc4n3)cc2)cc1 [Compound I-17]	0.33
177 to 178	c1ccc(-c2ccc(-c3cnccn3)cc2)cc1 [Compound I-10]	0.71
–	c1ccc(-c2ccc(-c3ccccn3)cc2)cc1 [Compound I-20]	0.23
–	Cc1cc(-c2ccc(-c3ccccc3)cc2)nc2ccccc12 [Compound I-18]	1.1
–	C#CC1COc2ccc(-c3c(OC)cc(-c4ccc(O)cc4)c(OC)c3O)cc2O1 (stereo not drawn) [Compound I-44]	0.6
–	c1ccc(-c2ccc(-c3cccnn3)cc2)cc1 [Compound I-25]	0.29
176 to 177	c1ccc(-c2ccc(-c3ccccc3)nc2)cc1 [Compound I-11]	0.21
